Key:
intact calmodulin [1] = details: cited from earlier work
anti-calmodulin serum = details: one antiserum; vertebrate calmodulin residues 137 to 143; cited from earlier work
intact calmodulin [2] = assay: Injection of immunogen into laboratory rabbits to elicit antisera against calmodulin; type: in vivo; details: merely injecting calmodulin into laboratory rabbits
Text: Using one of the rabbit antisera, we proceeded to test peptide segments encompasssing the entire calmodulin molecule to locate one or more immunoreactive sites in the protein. See Van Eldik, L. J. and Watterson D. M. "Reproducible Production of Antiserum against Vertebrate Calmodulin and Determination of the Immunoreactive Site" Journal of Biological Chemistry Volume 256 (9), pp. 4205-4210 (1981). Upon completion of these studies we proposed than an immunoreactive site of calmodulin is contained in an 18 residue region (residues 127-144) within the COOH-terminal domain of calmodulin.
However, although the minimal immunoreactive heptapeptide site of calmodulin met both of the above requirements, we were unable to produce anti-calmodulin sera when we injected laboratory rabbits with a synthetic heptapeptide corresponding to the immunoreactive site of the protein. […] Van Eldik, et al. "Elucidation of a Minimal Immunoreactive Site of Vertebrate Calmodulin" (cited above).

Substance	reactivity of the elicited antibodies (intact calmodulin [1]; antibodies from injected rabbits tested against synthetic heptapeptide and intact calmodulin)	antibody response in rabbits (immunogenicity) (intact calmodulin [1]; laboratory rabbits injected with synthetic heptapeptide)	immunoreactivity with anti-calmodulin serum compared with the entire protein (anti-calmodulin serum)	anti-calmodulin serum titer after injection (intact calmodulin [2])
asparagine-tyrosine-glutamic acid-glutamic acid-phenylalanine-valine-glutamine [synthetic heptapeptide]	reacted with the synthetic heptapeptide but not with intact calmodulin	elicited an antibody response	as immunoreactive as the entire 148-residue protein	
calmodulin				inability to develop an anti-calmodulin serum of useful titer
